Source: ChEMBL document CHEMBL1139380, “Edaravone derivatives containing NO-donor functions” (J Med Chem, 2009)
Calls of active or inactive are those of the source. The rule behind the calls is not given here.

Tests used:
Liver microsomes [1] = assay: Antioxidant activity against […]/ascorbate-induced lipid peroxidation in Wistar rat liver microsomal membrane at 05 to 15 uM by TBARS assay; format: functional; settings: Microsome
physchem [2] = settings: octanol/water
Description: Lipophilicity, neutral log P of the compound

Aorta [3] = assay: tissue or blood; settings: Rattus norvegicus, Wistar
Description: (§1) Vasodilation activity in Wistar rat aorta assessed as relaxation of phenylephrine-induced contraction

physchem [4] = assay: physchem
Description: Dissociation constant, pKa by potentiometric titration

Liver microsomes [5] = system: Liver microsomes
Description: Antioxidant activity against Fe2SO4/ascorbate-induced lipid peroxidation in Wistar rat liver microsomal membrane by TBARS assay

[6] = octanol/water
Description: Lipophilicity, ionic log P by shake flask method

physchem [7] = settings: octanol/water, pH 7.4
Aorta [8] = system: Aorta
Description: as §1

| Structure (SMILES) | Activity (Liver microsomes [1]) | logP (physchem [2]) | EC50 (Aorta [3]) | pKa (physchem [4]) | IC50 (Liver microsomes [5]) | logPi [6] | logD (physchem [7]) | EC50 (Aorta [8]) |
| --- | --- | --- | --- | --- | --- | --- | --- | --- |
| COCCCCCCO[N+](=O)[O-] | inactive | 2.23 | 1400 nM | – | – | – | – | – |
| CC1=NN(c2ccc(OCCCOc3no[n+]([O-])c3S(=O)(=O)c3ccccc3)cc2)C(=O)C1 | – | 3.62 | 77 nM | 7.12 | 3800 nM | 0.4 | 3.16 | – |
| CC1=NN(c2ccc(OCCCO[N+](=O)[O-])cc2)C(=O)C1 | – | 1.9 | 1100 nM | 7.11 | 3400 nM | -1.07 | 1.59 | – |
| CC1=NN(c2ccc(OCCCCCCO[N+](=O)[O-])cc2)C(=O)C1 | – | 3.34 | 980 nM | 7.12 | 2100 nM | 0.15 | 2.67 | – |
| COCc1no[n+]([O-])c1C#N | inactive | 0.83 | 9.5 nM | – | – | – | – | – |
| CC1=NN(c2ccc(OCCCCC(CO[N+](=O)[O-])O[N+](=O)[O-])cc2)C(=O)C1 (stereo not drawn) | – | 3.1 | 680 nM | 7.15 | 2900 nM | 0.05 | 2.54 | – |
| CC1=NN(c2ccc(OCc3no[n+]([O-])c3C#N)cc2)C(=O)C1 | – | 1.72 | 23 nM | 7.06 | 5800 nM | -0.99 | 1.28 | – |
| COc1no[n+]([O-])c1-c1ccccc1 | inactive | 2.47 | 5600 nM | – | – | – | – | – |
| COCCCO[N+](=O)[O-] | inactive | 1.01 | 9600 nM | – | – | – | – | – |
| COc1ccc(N2N=C(C)CC2=O)cc1 | – | 1.19 | – | 7.06 | 20000 nM | – | 0.77 | Not Active |
| CC1=NN(c2ccc(OCc3no[n+]([O-])c3C(N)=O)cc2)C(=O)C1 | – | 0.92 | 2800 nM | 7.08 | 7900 nM | – | 0.48 | – |
| COCc1no[n+]([O-])c1C(N)=O | inactive | 0.14 | 3900 nM | – | – | – | – | – |
| CC1=NN(c2ccccc2)C(=O)C1 [EDARAVONE] | – | 1.28 | – | 6.9 | 17000 nM | – | 0.78 | Not Active |
| CCOc1no[n+]([O-])c1S(=O)(=O)c1ccccc1 | inactive | 3.15 | 12 nM | – | – | – | – | – |
